Test results: patent US20230104936A1, “TRPML MODULATORS” (Casma Therapeutics, Inc., priority 2019, published 2023)

Tested on: TFEB
Assay: TFEB nuclear translocation assay, HeLa wt cells
Format: cell-based
Conditions: 2 hrs compound treatment, Table 1 does not say HeLa wt or TRPML1 KO
Procedure, shortened: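 HeLa wt, 2 hr compound, 37° C; 4% PFA fix; anti-TFEB (rabbit, 1:200, overnight 4° C) + Alexa 488 secondary, Hoechst. Imaged ×20, 4 fields/well. Readout: nuclear/ring Alexa 488 intensity ratio; AC50.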

SMILES | AC50 | AC50 (Homo sapiens, HeLa, 2 h)
CN(C)S(=O)(=O)c1ccc(S(=O)(=O)Nc2ccccc2N2C3CC2CN(c2ccc(Cl)cc2F)C3)cc1 [Compound A-28, N4-{2-[3-(4-chloro-2-fluorophenyl)-3,6-diazabicyclo[3.1.1]heptan-6-yl]phenyl}-N1,N1-dimethylbenzene-1,4-disulfonamide] | ≤ 2000 nM | 
CC1(C)CC2(CCN(c3ccccc3NS(=O)(=O)c3ccc(OC(F)(F)F)cc3)CC2)CO1 [Compound A-673, N-(2-{3,3-dimethyl-2-oxa-8-azaspiro[4.5]decan-8-yl}phenyl)-4-(trifluoromethoxy)benzene-1-sulfonamide] |  | 2010 to 8000 nM
COC(=O)C(C)(C)c1ccc(S(=O)(=O)Nc2ccccc2N2CCC3(CC2)COC(C)(C)C3)cc1 [Compound A-710, methyl 2-{4-[(2-{3,3-dimethyl-2-oxa-8-azaspiro[4.5]decan-8-yl}phenyl)sulfamoyl]phenyl}-2-methylpropanoate] |  | 8010 to 9990 nM
CP(=O)(Nc1ccccc1N1CCC(c2ccc(Cl)cc2F)CC1)c1ccccc1 (stereo not drawn) [Compound A-66, 4-(4-chloro-2-fluorophenyl)-1-(2-{[methyl(phenyl)phosphoryl]amino}phenyl)piperidine] |  | ≥ 10000 nM
COCC1(C)CCN(c2ccccc2NS(=O)(=O)c2ccc(C(C)(C)OC)cc2)CC1 [Compound A-655, N-{2-[4-(methoxymethyl)-4-methylpiperidin-1-yl]phenyl}-4-(2-methoxypropan-2-yl)benzene-1-sulfonamide] |  | 2010 to 8000 nM
Cc1nc2ccc(S(=O)(=O)Nc3ccccc3N3CCN(C(=O)C(C)(C)C)CC3)cc2s1 [Compound A-600, N-{2-[4-(2,2-dimethylpropanoyl)piperazin-1-yl]phenyl}-2-methyl-1,3-benzothiazole-6-sulfonamide] |  | ≥ 10000 nM
CP(C)(=O)c1ccc(S(=O)(=O)Nc2ccccc2N2CCC(c3c(F)cccc3F)CC2)cc1 [Compound A-177, N-{2-[4-(2,6-difluorophenyl)piperidin-1-yl]phenyl}-4-(dimethylphosphoryl)benzene-1-sulfonamide] |  | ≥ 10000 nM
CCS(=O)(=O)c1ccc(S(=O)(=O)Nc2ccccc2N2CCC(c3c(F)cccc3F)CC2)cc1 [Compound A-198, N-{2-[4-(2,6-difluorophenyl)piperidin-1-yl]phenyl}-4-(ethanesulfonyl)benzene-1-sulfonamide] |  | ≤ 2000 nM
CN(C)S(=O)(=O)c1ccc(S(=O)(=O)C(c2cccc(F)c2N2CCCCC2)C2CC2)cc1 (single isomer, unassigned) [Compound A-982, 4-((cyclopropyl(3-fluoro-2-(piperidin-1-yl)phenyl)methyl)sulfonyl)-N,N-dimethylbenzenesulfonamide] |  | ≤ 2000 nM
CN(C)S(=N)(=O)c1ccc(S(=O)(=O)Nc2ccccc2N2CCC(O)(c3ccc(Cl)cc3F)CC2)cc1 (stereo not drawn) [Compound A-143, 4-({2-[4-(4-chloro-2-fluorophenyl)-4-hydroxypiperidin-1-yl]phenyl}sulfamoyl)-N,N-dimethylbenzene-1-sulfonoimidamide] |  | ≤ 2000 nM
C[C@@H]1CN(CC2CCN(c3c(F)cccc3NS(=O)(=O)c3ccc(S(=O)(=O)N(C)C)cc3)CC2)C[C@H](C)O1 [Compound A-755, N4-[2-(4-{[(2R,6S)-2,6-dimethylmorpholin-4-yl]methyl}piperidin-1-yl)-3-fluorophenyl]-N1,N1-dimethylbenzene-1,4-disulfonamide] |  | ≤ 2000 nM
CC(C)(C)C(=O)N1CCN(c2ccccc2NS(=O)(=O)Cc2ccc3ccccc3c2)CC1 [Compound A-566, N-{2-[4-(2,2-dimethylpropanoyl)piperazin-1-yl]phenyl}-1-(naphthalen-2-yl)methanesulfonamide] |  | 2010 to 8000 nM
CC(c1cccc(F)c1N1CCC(COC(C)(C)C)CC1)S(=O)(=O)c1ccc(C(F)F)cc1 (single isomer, unassigned) [Compound A-977, 4-(tert-butoxymethyl)-1-(2-(1-((4-(difluoromethyl)phenyl)sulfonyl)ethyl)-6-fluorophenyl)piperidine] | 2010 to 8000 nM | 
CN(C)S(=N)(=O)c1ccc(S(=O)(=O)Nc2ccccc2N2CCC(c3ccc(Cl)cc3F)CC2)cc1 (stereo not drawn) [Compound A-112, 4-({2-[4-(4-chloro-2-fluorophenyl)piperidin-1-yl]phenyl}sulfamoyl)-N,N-dimethylbenzene-1-sulfonoimidamide] |  | ≤ 2000 nM
COc1ccc(S(=O)(=O)Nc2ccccc2N2CCC3(CC2)CN(C)c2cc(F)ccc23)cc1 [Compound A-252, N-(2-{6-fluoro-1-methyl-1,2-dihydrospiro[indole-3,4′-piperidin]-1′-yl}phenyl)-4-methoxybenzene-1-sulfonamide] |  | ≤ 2000 nM
O=S(=O)(Nc1ccccc1N1CCCC1)c1ccc2c(c1)OCCCO2 [Compound A-372, N-[2-(pyrrolidin-1-yl)phenyl]-3,4-dihydro-2H-1,5-benzodioxepine-7-sulfonamide] |  | 2010 to 8000 nM
CC(C)S(=O)(=O)c1ccc(S(=O)(=O)Nc2ccccc2N2CCC(O)(c3ccc(F)cn3)CC2)cc1 [Compound A-413] |  | 8010 to 9990 nM

SMILES | AC50 | AC50 (Homo sapiens, HeLa, 2 h)
CC(c1cc(Cl)cnc1N1CCC(CN2CCC(F)(F)CC2)CC1)S(=O)(=O)c1ccc(S(=O)(=O)N(C)C)cc1 (single isomer, unassigned) [Compound A-979, 4-((1-(5-chloro-2-(4-((4,4-difluoropiperidin-1-yl)methyl)piperidin-1-yl)pyridin-3-yl)ethyl)sulfonyl)-N,N-dimethylbenzenesulfonamide] | 2010 to 8000 nM | 
CC(C)c1ccc(S(=O)(=O)Nc2ccccc2N2CCC3(CC2)COC(C)(C)C3)cc1 [Compound A-658, N-(2-{3,3-dimethyl-2-oxa-8-azaspiro[4.5]decan-8-yl}phenyl)-4-(propan-2-yl)benzene-1-sulfonamide] |  | ≤ 2000 nM
CN1CC2(CCN(c3ccccc3N(C)S(=O)(=O)c3ccc(S(=O)(=O)N(C)C)cc3)CC2)c2ccc(F)cc21 [Compound A-243, N1-(2-{6-fluoro-1-methyl-1,2-dihydrospiro[indole-3,4′-piperidin]-1′-yl}phenyl)-N1,N4,N4-trimethylbenzene-1,4-disulfonamide] |  | ≤ 2000 nM
Cc1ccc(S(=O)(=O)C(C)c2cccc(F)c2N2CCC(CN3C4CCC3COC4)CC2)cc1 (single isomer, unassigned) [Compound A-924, 8-((1-(2-fluoro-6-(1-tosylethyl)phenyl)piperidin-4-yl)methyl)-3-oxa-8-azabicyclo[3.2.1]octane] | ≤ 2000 nM | 
COCC1(C)CCN(c2ccc(F)cc2NS(=O)(=O)c2ccc(S(=O)(=O)N(C)C)cc2)CC1 [Compound A-695, N4-{5-fluoro-2-[4-(methoxymethyl)-4-methylpiperidin-1-yl]phenyl}-N1,N1-dimethylbenzene-1,4-disulfonamide] |  | ≤ 2000 nM
O=S(=O)(Nc1ccccc1N1CCC(c2ccc(Cl)cc2F)CC1)c1ccccc1 [Compound A-42, N-{2-[4-(4-chloro-2-fluorophenyl)piperidin-1-yl]phenyl}benzenesulfonamide] |  | ≥ 10000 nM
CC1(C)CC2(CCN(c3ccccc3NS(=O)(=O)Cc3ccc4c(c3)COCC4)CC2)CO1 [Compound A-712, 1-(3,4-dihydro-1H-2-benzopyran-7-yl)-N-(2-{3,3-dimethyl-2-oxa-8-azaspiro[4.5]decan-8-yl}phenyl)methanesulfonamide] |  | 2010 to 8000 nM
CS(=O)(=O)c1ccc(S(=O)(=O)Nc2ccccc2N2CCC(c3ncc(F)cc3F)CC2)cc1 [Compound A-131, N-{2-[4-(3,5-difluoropyridin-2-yl)piperidin-1-yl]phenyl}-4-methanesulfonylbenzene-1-sulfonamide] |  | ≤ 2000 nM
CN(C)S(=O)(=O)c1ccc(S(=O)(=O)Nc2cccc(F)c2N2CCC(C)(C(F)F)CC2)cc1 [Compound A-830, N4-{2-[4-(difluoromethyl)-4-methylpiperidin-1-yl]-3-fluorophenyl}-N1,N1-dimethylbenzene-1,4-disulfonamide] |  | ≤ 2000 nM
CN(C)S(=O)(=O)c1ccc(S(=O)(=O)Nc2ccccc2N2CCC(O)(c3cc(Br)ncc3F)CC2)cc1 [Compound A-210, N4-{2-[4-(2-bromo-5-fluoropyridin-4-yl)-4-hydroxypiperidin-1-yl]phenyl}-N1,N1-dimethylbenzene-1,4-disulfonamide] |  | ≤ 2000 nM
CN1CCC2(CCN(c3ccccc3NS(=O)(=O)c3ccc(S(C)(=O)=O)cc3)CC2)c2ccccc21 [Compound A-492, 4-methanesulfonyl-N-(2-{1′-methyl-2′,3′-dihydro-1′H-spiro[piperidine-4,4′-quinolin]-1-yl}phenyl)benzene-1-sulfonamide] |  | ≤ 2000 nM
CC(N1CCN(c2ccccc2NS(=O)(=O)c2ccc(Cl)cc2)CC1)C(F)(F)F (stereo not drawn) [Compound A-541, 4-chloro-N-{2-[4-(1,1,1-trifluoropropan-2-yl)piperazin-1-yl]phenyl}benzene-1-sulfonamide] |  | ≤ 2000 nM
CN(C)S(=O)(=O)c1ccc(S(=O)(=O)Nc2ccccc2N2CCC(C(=O)C(C)(C)C)CC2)cc1 [Compound A-470, N4-{2-[4-(2,2-dimethylpropanoyl)piperidin-1-yl]phenyl}-N1,N1-dimethylbenzene-1,4-disulfonamide] |  | ≤ 2000 nM
CN(C)C(=O)N1CCN(c2ccccc2NS(=O)(=O)c2ccc(S(=O)(=O)N(C)C)cc2)CC1 [Compound A-325, 4-{2-[4-(dimethylsulfamoyl)benzenesulfonamido]phenyl}-N,N-dimethylpiperazine-1-carboxamide] |  | ≥ 10000 nM
CC1Cc2cc(S(=O)(=O)Nc3ccccc3N3CCN(C(=O)C(C)(C)C)CC3)ccc2O1 (stereo not drawn) [Compound A-530, N-{2-[4-(2,2-dimethylpropanoyl)piperazin-1-yl]phenyl}-2-methyl-2,3-dihydro-1-benzofuran-5-sulfonamide] |  | 2010 to 8000 nM
CN(C)S(=O)(=O)c1ccc(S(=O)(=O)c2ccccc2N2CCC(c3ccc(Cl)cc3F)CC2)cc1 [Compound A-156, 4-((2-(4-(4-chloro-2-fluorophenyl)piperidin-1-yl)phenyl)sulfonyl)-N,N-dimethylbenzenesulfonamide] |  | 2010 to 8000 nM
